Reference: patent publication US20100144733A1, “Compounds, compositions and methods comprising heteroaromatic derivatives” (Institute for OneWorld Health, priority 2008, published 2010)
Like-named read-outs stand apart in the source and are kept apart here.

What was measured:
[1] = target: T1, CFTR (Homo sapiens, UniProt P13569); assay: T84 assay (FLIPR membrane potential dye, forskolin/IBMX-stimulated CFTR channel activity); format: cell-based
T1 construct: endogenous in cells; host or cells: T84 human colonic cells (ECACC)
T1 sequence (P13569 whole entry): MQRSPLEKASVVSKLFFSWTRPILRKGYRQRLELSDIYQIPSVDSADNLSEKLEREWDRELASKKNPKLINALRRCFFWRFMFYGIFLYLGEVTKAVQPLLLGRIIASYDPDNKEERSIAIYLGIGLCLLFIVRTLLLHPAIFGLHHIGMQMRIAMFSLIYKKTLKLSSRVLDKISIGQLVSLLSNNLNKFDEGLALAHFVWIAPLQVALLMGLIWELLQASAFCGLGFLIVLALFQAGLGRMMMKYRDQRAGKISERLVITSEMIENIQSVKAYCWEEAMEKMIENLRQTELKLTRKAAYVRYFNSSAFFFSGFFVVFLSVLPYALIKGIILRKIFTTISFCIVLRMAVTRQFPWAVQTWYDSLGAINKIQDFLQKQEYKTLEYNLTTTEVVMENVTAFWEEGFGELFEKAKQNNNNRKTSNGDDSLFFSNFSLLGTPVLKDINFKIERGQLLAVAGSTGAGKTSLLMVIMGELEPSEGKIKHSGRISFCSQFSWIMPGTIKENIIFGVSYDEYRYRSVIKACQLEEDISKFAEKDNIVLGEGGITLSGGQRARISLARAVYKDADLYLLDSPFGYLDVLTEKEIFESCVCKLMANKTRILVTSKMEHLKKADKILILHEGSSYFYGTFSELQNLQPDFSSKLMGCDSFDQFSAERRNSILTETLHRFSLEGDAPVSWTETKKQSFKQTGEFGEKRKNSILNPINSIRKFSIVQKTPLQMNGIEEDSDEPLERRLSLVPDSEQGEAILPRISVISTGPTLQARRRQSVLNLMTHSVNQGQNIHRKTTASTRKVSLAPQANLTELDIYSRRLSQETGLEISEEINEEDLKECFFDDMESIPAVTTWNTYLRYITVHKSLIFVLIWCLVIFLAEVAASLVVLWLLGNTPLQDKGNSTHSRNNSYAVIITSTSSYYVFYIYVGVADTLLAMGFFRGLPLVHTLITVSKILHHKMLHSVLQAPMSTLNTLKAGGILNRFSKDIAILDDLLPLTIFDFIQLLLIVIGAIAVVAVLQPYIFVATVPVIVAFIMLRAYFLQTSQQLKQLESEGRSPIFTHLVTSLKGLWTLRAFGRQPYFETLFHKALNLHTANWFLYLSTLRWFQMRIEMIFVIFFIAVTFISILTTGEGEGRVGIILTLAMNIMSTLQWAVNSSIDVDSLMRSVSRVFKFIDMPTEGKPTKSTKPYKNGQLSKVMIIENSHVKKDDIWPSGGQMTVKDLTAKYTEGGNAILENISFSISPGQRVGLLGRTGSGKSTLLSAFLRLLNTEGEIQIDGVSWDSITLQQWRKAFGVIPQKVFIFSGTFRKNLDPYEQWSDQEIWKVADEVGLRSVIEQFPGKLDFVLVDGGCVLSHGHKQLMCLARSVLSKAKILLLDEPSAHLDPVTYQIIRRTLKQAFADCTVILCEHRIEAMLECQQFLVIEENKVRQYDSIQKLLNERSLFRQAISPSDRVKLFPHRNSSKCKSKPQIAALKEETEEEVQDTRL
Procedure, shortened: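 Fluorescence from a membrane potential dye in T84 monolayers (HBSS with 10 mM Hepes) is followed each second for 150 s. Cells are exposed to test compound during the 45 min dye loading, then challenged with forskolin (10 μM) and IBMX (100 μM) to open CFTR. Inhibitors suppress the depolarization-driven fluorescence increase.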

[2] = tested on: cholera toxin (CTX) induced net fluid secretion in intestinal loops; assay: animal or person; format: in vivo, mice (CD1 strain); settings: 4 hours; for inhibition in vivo at 100 µg/loop: Mus musculus, read-out: closed loop % inhibition @ 100 μg
[3] = target: T2, CHO-CFTR cell line (Homo sapiens, UniProt P13569); assay: CHO-CFTR assay (FLIPR assay, same conditions as the T84 assay); format: cell-based; settings: imidazole and triazole-containing compounds
T2 construct: expressed in transfected cells; host or cells: CHO (CHO-CFTR cell line)
T2 sequence (P13569 whole entry): as above

[4] = oxadiazole-containing compounds (a series), average of at least 2 runs unless annotated n = 1, read-out: IC50
[5] = imidazole and triazole-containing compounds (Tables 13, 14, 14′), read-out: IC50 (μM) (T84 assay)

CC(C)(C)C(=O)CN(Cc1cccc(C(F)(F)F)c1)C(=O)c1nc(-c2cc(Br)c(O)c(Br)c2)no1 [1a, 3-(3,5-dibromo-4-hydroxyphenyl)-N-(3,3-dimethyl-2-oxobutyl)-N-(3-(trifluoromethyl)benzyl)-1,2,4-oxadiazole-5-carboxamide]
IC50 [1, 4]: 0.98 µM
closed loop % inhibition @ 10 μg [2]: 69.4%
inhibition in vivo at 100 µg/loop [2]: 87.1%

CN(Cc1ccc(C(F)(F)F)cc1)C(=O)c1cc(-c2cc(Br)c(O)c(Br)c2)on1 [2g, 5-(3,5-Dibromo-4-hydroxyphenyl)-N-methyl-N-(4(trifluoromethyl)benzyl)isoxazole-3-carboxamide]
IC50 ([1]; isoxazole-containing compounds (Table 10, 10′, 11, 11′), read-out: IC50): 6.96 µM
closed loop % inhibition @ 10 μg [2]: −66.3%
inhibition in vivo at 100 µg/loop [2]: 94.2%

O=C(NCc1ccc(Oc2ccccc2)cc1)c1nc(-c2cc(Br)c(O)c(Br)c2)no1 [13a, 3-(3,5-dibromo-4-hydroxyphenyl)-N-(4-phenoxybenzyl)-1,2,4-oxadiazole-5-carboxamide]
IC50 [1, 4]: 8.51 µM
closed loop % inhibition @ 10 μg [2]: 88.6%
inhibition in vivo at 100 µg/loop [2]: 94.7%

Oc1c(Br)cc(-c2cnc(OCc3ccc(Cl)cc3)nn2)cc1Br [20e, 2,6-dibromo-4-(3-(4-chlorobenzyloxy)-1,2,4-triazin-6-yl)phenol]
closed loop % inhibition @ 100 μg [2]: 87.6%

Oc1c(Br)cc(-c2cnc(COc3cccc(Cl)c3Cl)nn2)cc1Br [30e, 2,6-dibromo-4(3-((2,3-dichlorophenoxy)methyl)-1,2,4-triazin-6-yl)phenol]
closed loop % inhibition @ 100 μg [2]: 94.4%

Oc1c(Cl)cc(-c2cnc(C(O)(c3ccccc3)c3ccccc3)nn2)cc1Cl [36e, 2,6-dichloro-4-(3-(hydroxydiphenylmethyl)-1,2,4-triazin-6-yl)phenol]
closed loop % inhibition @ 10 μg [2]: 62.1%
closed loop % inhibition @ 100 μg [2]: 74.9%

O=C(NCc1cccc(OC(F)(F)F)c1)c1noc(-c2cc(Br)c(O)c(Br)c2)n1 [65a, 5-(3,5-Dibromo-4-hydroxyphenyl)-N-(3-(trifluoromethoxy)benzyl)-1,2,4-oxadiazole-3-carboxamide]
IC50 [1, 4]: 1.53 µM
inhibition in vivo at 100 µg/loop [2]: 94.6%

Oc1c(Br)cc(-c2cnc(OCCc3ccccc3)nn2)cc1Br [96e, 2,6-dibromo-4-(3-phenethoxy-1,2,4-triazin-6-yl)phenol]
closed loop % inhibition @ 100 μg [2]: 78.6%

OCCN(Cc1ccccc1)c1ccc(-c2cc(Cl)c(O)c(Cl)c2)nn1 [98f, 4-(6-(benzyl(2-hydroxyethyl)amino)pyridazin-3-yl)-2,6-dichlorophenol]
closed loop % inhibition @ 100 μg [2]: 67.0%

O=C(NCc1cc(F)cc(F)c1)c1noc(-c2cc(Cl)c(O)c(Cl)c2)n1 [112a, 5-(3,5-dichloro-4-hydroxyphenyl)-N-(3,5-difluorobenzyl)-1,2,4-oxadiazole-3-carboxamide]
IC50 [1, 4]: 11.2 µM
inhibition in vivo at 100 µg/loop [2]: 51%

CCN(Cc1ccccc1)c1ccc(-c2cc(Cl)c(O)c(Cl)c2)nn1 [115f, 4-(6-(benzyl(ethyl)amino)pyridazin-3-yl)-2,6-dichlorophenol]
closed loop % inhibition @ 100 μg [2]: 79.4%

O=C(NCc1cccc(OC(F)(F)F)c1)c1noc(-c2cc(Cl)c(O)c(Cl)c2O)n1 [120a, 5-(3,5-dichloro-2,4-dihydroxyphenyl)-N-(3-(trifluoromethoxy)benzyl)-1,2,4-oxadiazole-3-carboxamide]
IC50 [1, 4]: 12.4 µM
inhibition in vivo at 100 µg/loop [2]: 62.3%

CON(Cc1cccc(OC(F)(F)F)c1)C(=O)c1ncn(-c2cc(Cl)c(O)c(Cl)c2)n1 [125i, 1-(3,5-dichloro-4-hydroxyphenyl)-N-methoxy-N-(3-(trifluoromethoxy)benzyl)-1H-1,2,4-triazole-3-carboxamide]
IC50 [1, 5]: 3.44 µM
IC50 [3]: 9.67 µM

CON(Cc1ccc(Cl)c(Cl)c1)C(=O)c1ncn(-c2cc(Cl)c(O)c(Cl)c2)n1 [126i, 1-(3,5-dichloro-4-hydroxyphenyl)-N-(3,4-dichlorobenzyl)-N-methoxy-1H-1,2,4-triazole-3-carboxamide]
IC50 [1, 5]: 2.43 µM
IC50 [3]: 2.46 µM

Oc1c(Cl)cc(-c2cnc(OCc3ccccc3F)nn2)cc1Cl [127e, 2,6-dichloro-4-(3-(2-fluorobenzyloxy)-1,2,4-triazin-6-yl)phenol]
closed loop % inhibition @ 10 μg [2]: 62.7%
closed loop % inhibition @ 100 μg [2]: 70.2%

CON(Cc1ccc(C(C)(C)C)cc1)C(=O)c1ncn(-c2cc(Cl)c(O)c(Cl)c2)n1 [127i, N-(4-tert-butylbenzyl)-1-(3,5-dichloro-4-hydroxyphenyl)-N-methoxy-1H-1,2,4-triazole-3-carboxamide]
IC50 [1, 5]: 1.49 µM
IC50 [3]: 32.9 µM

CON(Cc1ccc(Oc2ccccc2)cc1)C(=O)c1ncn(-c2cc(Cl)c(O)c(Cl)c2)n1 [129i, 1-(3,5-dichloro-4-hydroxyphenyl)-N-methoxy-N-(4-phenoxybenzyl)-1H-1,2,4-triazole-3-carboxamide]
IC50 [1, 5]: 2.61 µM
IC50 [3]: 22.5 µM

CCON(Cc1ccc(Oc2ccccc2)cc1)C(=O)c1ncn(-c2cc(Cl)c(O)c(Cl)c2)n1 [130i, 1-(3,5-dichloro-4-hydroxyphenyl)-N-ethoxy-N-(4-phenoxybenzyl)-1H-1,2,4-triazole-3-carboxamide]
IC50 [1, 5]: 2.84 µM
IC50 [3]: 4.09 µM

O=C(c1ncn(-c2cc(Cl)c(O)c(Cl)c2)n1)N(O)Cc1ccc(Oc2ccccc2)cc1 [131i, 1-(3,5-dichloro-4-hydroxyphenyl)-N-hydroxy-N-(4-phenoxybenzyl)-1H-1,2,4-triazole-3-carboxamide]
IC50 [1, 5]: 4.87 µM
IC50 [3]: 7.45 µM

CC(C)(C)C(=O)C(Cc1cccc(C(F)(F)F)c1)NC(=O)c1ncn(-c2cc(Cl)c(O)c(Cl)c2)n1 (stereo not drawn) [132i, 1-(3,5-dichloro-4-hydroxyphenyl)-N-(4,4-dimethyl-3-oxo-1-(3-(trifluoromethyl)phenyl)pentan-2-yl)-1H-1,2,4-triazole-3-carboxamide]
IC50 [1, 5]: 3.87 µM
IC50 [3]: 26.5 µM

CC(C)(C)C(=O)C(Cc1cccc(OC(F)(F)F)c1)NC(=O)c1ncn(-c2cc(Cl)c(O)c(Cl)c2)n1 (stereo not drawn) [133i, 1-(3,5-dichloro-4-hydroxyphenyl)-N-(4,4-dimethyl-3-oxo-1-(3-(trifluoromethoxy)phenyl)pentan-2-yl)-1H-1,2,4-triazole-3-carboxamide]
IC50 [1, 5]: 1.23 µM
IC50 [3]: 21 µM

CC(C)c1ccc(CC(NC(=O)c2ncn(-c3cc(Cl)c(O)c(Cl)c3)n2)C(=O)C(C)(C)C)cc1 (stereo not drawn) [134i, 1-(3,5-dichloro-4-hydroxyphenyl)-N-(1-(4-isopropylphenyl)-4,4-dimethyl-3-oxopentan-2-yl)-1H-1,2,4-triazole-3-carboxamide]
IC50 [1, 5]: 3.09 µM
IC50 [3]: 8.6 µM
